Patent publication US11419335B2, “N-arylated analogues and uses thereof” (University of Florida Research Foundation, Incorporated, priority 2016, dated 2022)

Assays:
[1] = system: C. albicans SC5314; test: Fungal MIC susceptibility assay, C. albicans; format: cell-based, Candida albicans; details: for C. albicans SC5314 MIC: Table 2B
Method: (§1) Fungal minimum inhibition concentrations (MICs) were determined using standard microdilution methods according to the Clinical and Laboratory Standards Institute document M27-A3. The test compound concentration ranged from 0.01 to 100 μM. Amphotericin B (AmB) and itraconazole (ITC) (Fisher Scientific) were included as positive controls. DMSO, the vehicle control, was used at ≤1% v/v for these experiments. The fungal M27-A3 standard MIC assay protocol requires the following inoculum preparation protocol: The organisms were cultured onto PDA medium at 35° C. The inoculum is prepared by picking five colonies from 24-hour old culture of Candida spp. or 48-hour old culture of C. neoformans. The inoculum was suspended in 5 ml of sterile water, the resulting suspension was vortexed for 15 seconds and the cell density adjusted (by adding more sterile water) to an OD530=0.30, which yields a suspension of 1×10^6 to 5×10^6 cells per mL. The suspension was diluted 50 times and then 20 times using RPMI 1640 medium to obtain the two times test inoculum (1×10^3 to 5×10^3 cells per mL). The following steps are the same with the standard bacterial MIC protocol using 96-well plates. NOTE: RPMI 1640 medium was used in the fungal MIC assay (for both cell inoculum and compound dilution).

[2] = system: C. neoformans ATCC 66031; test: Fungal MIC susceptibility assay, C. neoformans; format: cell-based; details: for C. neoformans 66031 MIC: Table 2B
Method: as §1

[3] = system: MRSA BAA-1707 stationary cultures; test: MRSA persister cell kill kinetics (stationary cultures); format: cell-based, Staphylococcus aureus; details: 50 μM; after 90 minutes
Method: (§2) An overnight culture of MRSA BAA-1707 was diluted in fresh TSBG (1:13 to 1:20 fold) and allowed to grow with shaking. Once the culture reached stationary phase (4-6 hours), test compounds were added at a final test concentration of 50 μM. The cultures were incubated with shaking at 250 rpm and aliquots were removed and plated out at predetermined time points. Colony forming units (CFU) per milliliter data was recorded and plotted using Graphpad Prism 6.0.
The panel of membrane-active compounds was also evaluated head-to-head at 50 μM against MRSA BAA-1707 stationary cultures in kinetic killing experiments. Stationary cultures of S. aureus have elevated populations of metabolically dormant persister cells^36,37 and using this experiment, we could get multiple early time points to see if 1 and 2 were rapid killers of MRSA persister cells.
as §2, with “different” for “predetermined”

[4] = system: MRSA BAA-1707 biofilms; test: Live/Dead staining of MRSA biofilms; format: cell-based, Staphylococcus aureus
Method: A mid-log culture of MRSA BAA-1707 was diluted 1:1000-fold and 500 μL was transferred to each compartment of a four-compartment CELLview dish (Greiner Bio-One 627871). The dish was then incubated for 24 hours at 37° C. to establish MRSA-1707 biofilms. After this time, the cultures were removed and the plate was washed with 0.9% saline. The dish was then treated with test compounds in fresh media at various concentrations. DMSO was used as a negative control in this assay. The dish was incubated with the test compound for 24 hours at 37° C. After this time, the cultures were removed and the dish was washed with 0.9% saline for 2 minutes. Saline was then removed and 500 μL of the stain (Live/Dead BacLight Viability Kit, Invitrogen) were added for 15 minutes and left in the dark. After this time, the stain was removed and the dish was washed twice with 0.9% saline. Then the dish was fixed with 500 μL 4% paraformaldehyde in PBS for 30 minutes. Images of remaining MRSA biofilms were then taken with a fluorescence microscope.

SMILES | C. albicans SC5314 MIC [1] | MIC C. albicans SC5314 ([1]; Table 4, antifungal) | C. neoformans 66031 MIC [2] | MIC C. neof 66031 ([2]; Table 4, antifungal) | reduction of stationary MRSA cells [3] | MIC ([1]; Candida albicans, SC5314, Table 4, antifungal) | MIC ([2]; Cryptococcus neoformans, ATCC66031, Table 4, antifungal, read-out: MIC C. neof 66031) | clearance of MRSA biofilms (fluorescence images) ([4]; FIG. 4, 24 hours after treatment) | clearance of established biofilms (Live/Dead staining) ([4]; at 31.3 μM)
CCCCCCCCCCCCCCCC[N+](C)(C)Cc1ccccc1.[Cl-] [BAC-16, reference compound] | 3.13 µM | 3.13 µM | 3.12 µM | 6.25 µM |  |  |  |  | 
CCCCCCCCCCCCCCCCn1cc[n+](C)c1C.[I-] [Compound 8] | 3.13 µM | 3.13 µM | 1.56 µM | 6.25 µM |  |  |  |  | 
CCCCCCCCCCCCCCCCn1cc[n+](CCO)c1C.[Br-] [Compound 11] | 3.13 µM | 3.13 µM | 1.56 µM | 6.25 µM |  |  |  |  | 
CCCCCCCCCCCCCCCCn1cc[n+](Cc2ccccc2)c1C [NH125, 3-benzyl-1-hexadecyl-2-methyl-1H-imidazol-3-ium bromide, reference compound] |  |  |  |  | ~1 logs | 3.13 µM | 3.13 µM | potent clearance of MRSA biofilms | effective clearance of established biofilms
